Results published in patent US10894784B2, “Heteroarylbenzimidazole compounds” (BAYER PHARMA AKTIENGESELLSCHAFT, priority 2015, dated 2021).
pIC50: −log10 of the molar value.

Molecular target: TBK1 (Homo sapiens (Human), UniProt Q9UHD2)
Assay: TBK1 low ATP kinase assay (in vitro assay 1)
Format: biochemical
Conditions: in vitro assay 1, read-out: TBK1 low ATP kinase assay IC50

TBK1, sequence (Q9UHD2 whole entry): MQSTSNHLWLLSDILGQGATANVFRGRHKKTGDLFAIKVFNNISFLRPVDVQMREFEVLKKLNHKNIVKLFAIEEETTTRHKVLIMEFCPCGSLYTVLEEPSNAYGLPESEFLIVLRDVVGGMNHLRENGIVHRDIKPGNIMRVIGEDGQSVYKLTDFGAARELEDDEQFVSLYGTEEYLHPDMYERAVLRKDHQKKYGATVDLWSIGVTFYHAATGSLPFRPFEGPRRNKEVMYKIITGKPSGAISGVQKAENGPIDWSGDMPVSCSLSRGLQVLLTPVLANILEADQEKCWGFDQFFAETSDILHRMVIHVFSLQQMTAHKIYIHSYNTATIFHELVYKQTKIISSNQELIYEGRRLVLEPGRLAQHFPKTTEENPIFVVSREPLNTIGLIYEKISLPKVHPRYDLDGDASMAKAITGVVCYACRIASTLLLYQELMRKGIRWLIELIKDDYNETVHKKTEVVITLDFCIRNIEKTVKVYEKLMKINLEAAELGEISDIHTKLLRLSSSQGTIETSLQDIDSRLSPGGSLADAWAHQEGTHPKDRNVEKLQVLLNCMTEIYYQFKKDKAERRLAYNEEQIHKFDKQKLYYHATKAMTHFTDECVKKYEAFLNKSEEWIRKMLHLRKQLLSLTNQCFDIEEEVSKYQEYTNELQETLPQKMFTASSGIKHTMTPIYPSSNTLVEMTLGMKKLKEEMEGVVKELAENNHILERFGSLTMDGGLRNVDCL

Row | Compound | pIC50
1 | Cc1cncnc1-c1ccc2nc(Nc3cc(CN4CCN(C(=O)C5CC5)CC4)ccn3)[nH]c2c1 [Example 184.03, cyclopropyl{4-[(2-{[6-(5-methylpyrimidin-4-yl)-1H-benzimidazol-2-yl]amino}pyridin-4-yl)methyl]piperazin-1-yl}methanone] | 6.67
2 | CC(c1ccnc(Nc2nc3ccc(-c4cc(C(F)(F)F)nn4C)cc3[nH]2)c1)N1CCN(C(=O)C2CC2)CC1 (single isomer, unassigned) [Example 88.03, cyclopropyl(4-{(1R or 1S)-1-[2-({6-[1-methyl-3-(trifluoromethyl)-1H-pyrazol-5-yl]-1H-benzimidazol-2-yl}amino)pyridin-4-yl]ethyl}piperazin-1-yl)methanone] | 6.00
3 | Cc1cc(CN2CCN(C(=O)C3CC3)CC2)cc(Nc2nc3ccc(-c4ccnc(C)n4)cc3[nH]2)n1 [Example 24.02.01, cyclopropyl{4-[(2-methyl-6-{[6-(2-methylpyrimidin-4-yl)-1H-benzimidazol-2-yl]amino}pyridin-4-yl)methyl]piperazin-1-yl}methanone] | 7.34
4 | Cc1ncnc(-c2ccc3nc(Nc4cc(CN5CCN(C(=O)C6CC6)CC5)ccn4)[nH]c3c2)c1C [Example 32.01, cyclopropyl{4-[(2-{[6-(5,6-dimethylpyrimidin-4-yl)-1H-benzimidazol-2-yl]amino}pyridin-4-yl)methyl]piperazin-1-yl}methanone] | 6.02
5 | O=C(CC(F)(F)F)N1CCN(Cc2ccnc(Nc3nc4ccc(-c5ncnc(NC6CC6)c5F)cc4[nH]3)c2)CC1 [Example 192.02, 1-(4-{[2-({6-[6-(cyclopropylamino)-5-fluoropyrimidin-4-yl]-1H-benzimidazol-2-yl}amino)pyridin-4-yl]methyl}piperazin-1-yl)-3,3,3-trifluoropropan-1-one] | 7.74
6 | COc1cncnc1-c1ccc2nc(Nc3cc(CN4CCN(C(=O)N(C)C)CC4)ccn3)[nH]c2c1 [Example 35.01.03, 4-[(2-{[6-(5-methoxypyrimidin-4-yl)-1H-benzimidazol-2-yl]amino}pyridin-4-yl)methyl]-N,N-dimethylpiperazine-1-carboxamide] | 7.23
7 | CC(c1ccnc(Nc2nc3ccc(-c4cnn(CC5CC5(F)F)c4)c(Cl)c3[nH]2)c1)N1CCN(C(=O)C2CC2)CC1 (single isomer, unassigned) [Example 70.02, {4-[(1R or 1S)-1-(2-{[7-chloro-6-(1-{[(1RS)-2,2-difluorocyclopropyl]methyl}-1H-pyrazol-4-yl)-1H-benzimidazol-2-yl]amino}pyridin-4-yl)ethyl]piperazin-1-yl}(cyclopropyl)methanone] | 9.14
8 | CCOc1c(-c2ccncc2OC)ccc2nc(Nc3cc(CN4CCN(C(=O)C5CCC5)CC4)ccn3)[nH]c12 [Example 51.04, cyclobutyl{4-[(2-{[7-ethoxy-6-(3-methoxypyridin-4-yl)-1H-benzimidazol-2-yl]amino}pyridin-4-yl)methyl]piperazin-1-yl}methanone] | 6.69
9 | COc1c(Cl)ncnc1-c1ccc2nc(Nc3cc(CN4CCN(C(=O)CC(F)(F)F)CC4)ccn3)[nH]c2c1 [Example 60.01, 1-{4-[(2-{[6-(6-chloro-5-methoxypyrimidin-4-yl)-1H-benzimidazol-2-yl]amino}pyridin-4-yl)methyl]piperazin-1-yl}-3,3,3-trifluoropropan-1-one] | 7.37
10 | CC(C)Nc1cc(-c2ccc3nc(Nc4cc(CN5CCN(C(=O)CC(F)(F)F)CC5)ccn4)[nH]c3c2)ncn1 [Example 154.02, 3,3,3-trifluoro-1-(4-{[2-({6-[6-(propan-2-ylamino)pyrimidin-4-yl]-1H-benzimidazol-2-yl}amino)pyridin-4-yl]methyl}piperazin-1-yl)propan-1-one] | 8.48
11 | COc1cncnc1-c1ccc2nc(Nc3cc(CN4CCN(S(=O)(=O)C5CCOCC5)CC4)ccn3)[nH]c2c1 [Example 35.01.14, 6-(5-methoxypyrimidin-4-yl)-N-(4-{[4-(tetrahydro-2H-pyran-4-ylsulfonyl)piperazin-1-yl]methyl}pyridin-2-yl)-1H-benzimidazol-2-amine] | 7.64
12 | O=C(CC(F)(F)F)N1CCN(Cc2ccnc(Nc3nc4ccc(-c5cc(NCC6CC6)ncn5)cc4[nH]3)c2)CC1 [Example 142.02, 1-[4-({2-[(6-{6-[(cyclopropylmethyl)amino]pyrimidin-4-yl}-1H-benzimidazol-2-yl)amino]pyridin-4-yl}methyl)piperazin-1-yl]-3,3,3-trifluoropropan-1-one] | 8.18
13 | CC(O)c1cc(-c2ccc3nc(Nc4cc(CN5CCN(C(=O)OC(C)(C)C)CC5)ccn4)[nH]c3c2)ncn1 (racemic) [Example 97.01, (rac)-tert-butyl 4-({2-[(6-{6-[1-hydroxyethyl]pyrimidin-4-yl}-1H-benzimidazol-2-yl)amino]pyridin-4-yl}methyl)piperazine-1-carboxylate] | 7.68
14 | Cc1cc(-c2ccc3nc(Nc4cc(C(C)N5CCN(C(=O)C6CC6)CC5)ccn4)[nH]c3c2)ncn1 (racemic) [Example 30.02.03, (rac)-cyclopropyl{4-[1-(2-{[6-(6-methylpyrimidin-4-yl)-1H-benzimidazol-2-yl]amino}pyridin-4-yl)ethyl]piperazin-1-yl}methanone] | 8.43
15 | CC(c1ccnc(Nc2nc3ccc(-c4cnn(CC5CCC5)c4)cc3[nH]2)c1)N1CCN(C(=O)C2CC2)CC1 (single isomer, unassigned) [Example 59.01.03, (4-{(1R or 1S)-1-[2-({6-[1-(cyclobutylmethyl)-1H-pyrazol-4-yl]-1H-benzimidazol-2-yl}amino)pyridin-4-yl]ethyl}piperazin-1-yl)(cyclopropyl)methanone] | 8.59
16 | COc1cncnc1-c1ccc2nc(Nc3cc(CN4CCN(C(=O)N5CCCCC5)CC4)ccn3)[nH]c2c1 [Example 35.01.06, {4-[(2-{[6-(5-methoxypyrimidin-4-yl)-1H-benzimidazol-2-yl]amino}pyridin-4-yl)methyl]piperazin-1-yl}(piperidin-1-yl)methanone] | 7.32
17 | COc1cc(-c2ccc3nc(Nc4cc(CN5CCN(C(=O)C6CC6)CC5)ccn4)[nH]c3c2)c(F)cn1 [Example 03.01, cyclopropyl{4-[(2-{[6-(5-fluoro-2-methoxypyridin-4-yl)-1H-benzimidazol-2-yl]amino}pyridin-4-yl)methyl]piperazin-1-yl}methanone] | 6.70
18 | CC(C)Nc1cc(-c2ccc3nc(Nc4cc(CN5CCN(C(=O)C6CC6)CC5)ccn4)[nH]c3c2)ncn1 [Example 154.03, cyclopropyl(4-{[2-({6-[6-(propan-2-ylamino)pyrimidin-4-yl]-1H-benzimidazol-2-yl}amino)pyridin-4-yl]methyl}piperazin-1-yl)methanone] | 8.85
19 | CC1CC1Cn1cc(-c2ccc3nc(Nc4cc(C(C)N5CCN(C(=O)OC(C)(C)C)CC5)ccn4)[nH]c3c2)cn1 (single isomer, unassigned) [Example 56.01, tert-butyl 4-[(1R or 1S)-1-(2-{[6-(1-{[(1RS,2RS)-2-methylcyclopropyl]methyl}-1H-pyrazol-4-yl)-1H-benzimidazol-2-yl]amino}pyridin-4-yl)ethyl]piperazine-1-carboxylate] | 7.78
20 | COc1cncnc1-c1ccc2nc(Nc3cc(C(C)N4CCN(C(=O)CC(F)(F)F)CC4)ccn3)[nH]c2c1 (single isomer, unassigned) [Example 35.03.01.B, 3,3,3-trifluoro-1-{4-[(1S or 1R)-1-(2-{[6-(5-methoxypyrimidin-4-yl)-1H-benzimidazol-2-yl]amino}pyridin-4-yl)ethyl]piperazin-1-yl}propan-1-one] | 7.52
21 | Cc1noc(C)c1-c1cc(-c2ccc3nc(Nc4cc(CN5CCN(C(=O)OC(C)(C)C)CC5)ccn4)[nH]c3c2)ncn1 [Example 92.01, tert-butyl 4-{[2-({6-[6-(3,5-dimethyl-1,2-oxazol-4-yl)pyrimidin-4-yl]-1H-benzimidazol-2-yl}amino)pyridin-4-yl]methyl}piperazine-1-carboxylate] | 7.06
22 | COc1ccncc1-c1ccc2nc(Nc3cc(CN4CCN(C(=O)CC5CC5)CC4)ccn3)[nH]c2c1 [Example 14.02, 2-cyclopropyl-1-{4-[(2-{[6-(4-methoxypyridin-3-yl)-1H-benzimidazol-2-yl]amino}pyridin-4-yl)methyl]piperazin-1-yl}ethanone] | 6.55
23 | Cc1ncc(C)c(-c2ccc3nc(Nc4cc(CN5CCN(C(=O)OC(C)(C)C)CC5)ccn4)[nH]c3c2)n1 [Example 33.01, tert-butyl 4-[(2-{[6-(2,5-dimethylpyrimidin-4-yl)-1H-benzimidazol-2-yl]amino}pyridin-4-yl)methyl]piperazine-1-carboxylate] | 5.45
24 | Cc1cc(-c2ccc3nc(Nc4cc(CN5CCN(C(=O)C6CCC6)CC5)ccn4)[nH]c3c2)ccn1 [Example 01.05, cyclobutyl{4-[(2-{[6-(2-methylpyridin-4-yl)-1H-benzimidazol-2-yl]amino}pyridin-4-yl)methyl]piperazin-1-yl}methanone] | 7.15
25 | CC(C)Oc1cc(-c2ccc3nc(Nc4cc(CN5CCN(C(=O)CC(F)(F)F)CC5)ccn4)[nH]c3c2)ncn1 [Example 160.02, 3,3,3-trifluoro-1-(4-{[2-({6-[6-(propan-2-yloxy)pyrimidin-4-yl]-1H-benzimidazol-2-yl}amino)pyridin-4-yl]methyl}piperazin-1-yl)propan-1-one] | 7.89
26 | O=C(CC(F)(F)F)N1CCN(Cc2ccnc(Nc3nc4ccc(-c5ncnc(NCC6CC6)c5F)cc4[nH]3)c2)CC1 [Example 195.02, 1-[4-({2-[(6-{6-[(cyclopropylmethyl)amino]-5-fluoropyrimidin-4-yl}1H-benzimidazol-2-yl)amino]pyridin-4-yl}methyl)piperazin-1-yl]-3,3,3-trifluoropropan-1-one] | 7.47
27 | Cc1noc(-c2ccc3nc(Nc4cc(CN5CCN(C(=O)C6CCC6)CC5)ccn4)[nH]c3c2)n1 [Example 16.01.05, cyclobutyl{4-[(2-{[6-(3-methyl-1,2,4-oxadiazol-5-yl)-1H-benzimidazol-2-yl]amino}pyridin-4-yl)methyl]piperazin-1-yl}methanone] | 6.84
